Reference: patent US20090220473A1, “ADIR RELATED POLYMORPHISMS AND APPLICATIONS THEREOF” (Leiden University Medical Center, priority 2006, published 2009)
Entries after “also recorded” stand apart in the source; their conditions may differ.

B1: peptide SVAPALALSPA (peptide)
peptide: SVAPALALSPA
notes: Synthetic peptide of the donor-type (Ser) allele

Legend:
T2 cells = test: 51Cr release assay on peptide loaded T2 cells with CTL; type: cell-based; conditions: for recognition (lysis) by RDR2 of peptide loaded T2 cells: 51Cr release assay, FIG. 2b
Protocol: Cytotoxicity of CTL clones in standard ^51Cr release assays was performed as described previously (Faber et al. 1992, J Exp Med 176: 1283-1289). Target cells were labelled with 100 μCi Na2^51CrO4 (Amersham Biosciences, Freiburg, Germany) for 1 hour at 37° C., washed, and diluted to […] to 5*10^4 cells per ml to obtain 10^3 to 5*10^3 target cells per well. CTL's were added in various effector:target (E:T) ratios and incubated for 4 hours. Supernatants were harvested and transferred to solid scintillator containing microplates (Perkin Elmer, Boston Mass., USA) and counted on a Topcount counter (Perkin Elmer). HPLC purified natural peptides or diluted synthetic peptides were tested for reactivity by loading ^51Cr labelled T2 or donor EBV LCL cells for 1-2 hours at 37° C. and 5% CO2 prior to addition of CTL.

[1] = biological target: T1, recombinant HLA A*0201 molecules (Homo sapiens, UniProt P04439, D140Y/D185E/D98H/E176V/E277Q/G131W/G231S/I119V/I121R/I166T/I218V/L300P/L318F/N151K/N90K/P208A/P217A/Q86G/Q94H/R138H/R169H/T345S); test: Binding of peptides to recombinant HLA A*0201 molecules (monomer folding)
T1 construct: biotin (biotinylated); made in house
Excerpt: Recombinant biotinilated HLA A*0201 monomers were folded in the presence of β2-microbglobulin with peptide […] or […]. Streptavidin-PE and streptavidin-APC tetramers were produced with refolded complexes as described previously (Altman et al. 1996 Science 274: 94-96). Tetrameric complexes were used to stain thawed patient samples taken at the indicated time points post SCT and DLI. Cells were counterstained by CD8 APC (Caltag, Burlingame, Calif., USA) and analysed by flowcytometry. Tetramer positive events were single well FACS sorted, expanded and tested for cytotoxicity.

GVHD = test: Treatment of acute GVHD in the patient after DLI; type: in vivo, human; conditions: 1 mg prednisolone/kg body weight and cyclosporin A together
[2] = biological target: recombinant HLA A*0201 molecules (human, biotinylated (site not stated)); test: refolding of recombinant HLA A*0201 with beta2-microglobulin and peptide

| Molecule | recognition (lysis) by RDR2 of peptide loaded T2 cells (T2 cells) | binding to recombinant HLA A*0201 molecules [1] | binding result [2] | also measured |
| --- | --- | --- | --- | --- |
| SVAPALALSPA [SVAPALAL-S-PA, donor-type allelic counterpart peptide with serine at position 9, reference compound] | not | able to bind | – | – |
| C[C@]12C=CC(=O)C=C1CC[C@@H]1[C@@H]2[C@@H](O)C[C@@]2(C)[C@H]1CC[C@]2(O)C(=O)CO [prednisolone] | – | – | – | treatment of GVHD (GVHD): treated successfully |
| SVAPAXAXFPA | – | – | – | peptide level at which lysis by RDR2 was reconstituted (T2 cells; 51Cr labelled T2 cells loaded with synthetic peptide, levels as low as, data not shown): ≤ 10 pM |
| SVAPALALFPA [LB-ADIR-1F] | lysed; also recorded: recognized | able to bind | – | – |
| SVAPALALFPA (Synthetic 11-mer) [LB-ADIR-1F peptide SVAPALALFPA] | – | – | binds | – |
| B1 | – | – | binds | – |
